This assay concerns Spodoptera littoralis. Nature of the assay: Insecticidal bioassay screening (castor leaf dip) on second and fourth instar larvae. The settings on record: for LC50: Spodoptera littoralis, in Gossypium hirsutum, foliar, 72 h; for Toxicity index %: 72 hrs, Diflubenzuron's LC50 / the compound's LC50 × 100; for LC90 (mg/L) at 95%: after 72 hrs of treatment, treated castor leaves. The format is in vivo. As for the experimental part: Five concentrations (200, 100, 50, 25, 12.5 ppm) were designed for this synthetic compound and the reference Diflubenzuron compound as the dynamic ingredients based on mg/L via diluting the commercial formulation.
In this experiment, castor leaves are immersed in each of the previously prepared concentrations of the components for 10 seconds and then left to dry for 60 minutes. Larvae of the second and fourth instars of each checked strain are prepared with treated leaves in gauze-covered glass containers for 72 hrs. An untreated control is made in which leaves are dipped in triton x-100 and distilled water only. Then the preserved leaves were removed & fresh, untreated leaves were provided for 72 hours. Three replicates (10 larvae each) were checked for each concentration. Daily inspection was carried out for all treatments and mortality percentages were recorded 3 days (72 hours) after treatment. The average mortality percentage was corrected employing Abbott's formula. The corrected mortality rate for each of the previously synthesized compounds is statistically calculated according to Finney (1970). Through this rate, the corresponding concentration test lines (LDP lines) are assessed.

[1] abbreviates: read-out: LC50 (mg/L) at 95%, 2nd instar larvae, after 72 hrs of treatment, treated castor leaves.
Where [2] appears, read: read-out: LC50 (mg/L) at 95%, 4th instar larvae, after 72 hrs of treatment, treated castor leaves.

Molecules are shown by their SMILES. Converted amounts (≈) assume the structure as drawn. Where two headings read alike, the source gives them in different places.

In the case of `CCOC(=O)c1c(NC(=S)NC(=O)c2ccc(Cl)cc2Cl)sc2c1CCCC2` [Ethyl-2-{[(2,4-dichlorobenzoyl)carbamothioyl]amino}-4,5,6,7-tetrahydro-1-benzothiophene-3-carboxylate], the LC50 under setting [1] was roughly 270 mg/L (≈ 591 µM) and the LC50 under setting [2] was roughly 631 mg/L (≈ 1380 µM).
In the case of `O=C(NC(=O)c1c(F)cccc1F)Nc1ccc(Cl)cc1` [Diflubenzuron], the Toxicity index % (2nd instar larvae) worked out at 100% and the Toxicity index % (4th instar larvae) turned out to be 100%. The “LC90 (mg/L) at 95%” value reads like this: (2nd instar larvae) 520.0 mg/L (≈ 1670 µM); (4th instar larvae) 1540.5 mg/L (≈ 4960 µM). Further, the LC50 runs as follows: under setting [1], 45.2 mg/L (≈ 145 µM); under setting [2], 144 mg/L (≈ 464 µM).
